Laboratory results as given in patent US12384777B2 (Tay Therapeutics Limited, priority 2019, dated 2025).
Like-named read-outs stand apart in the source and are kept apart here.

Legend:
human liver hepatocytes = assay: Intrinsic clearance in human liver hepatocytes; format: in vitro ADME; conditions: human cryopreserved hepatocytes, 0.5 μM test compound
Method: Vials of human cryopreserved hepatocytes, supplied by Life Technologies, were thawed according to manufacturer's instructions and cells re-suspended in Williams Medium E (WME) containing cell maintenance supplement pack (CM4000, Life Technologies). Hepatocytes were incubated in suspension (0.5 million cells/mL) in 48 well non-collagen coated cell culture plates for 10 min at 37° C., 5% CO2. Upon addition of an equal volume of supplemented WME containing 1 μM test compound, an aliquot of incubation solution was removed to acetonitrile containing internal standard (final concentration 0.5 μM test compound and a cell density of 0.25 million cells/mL). Similarly, aliquots were removed at 3, 6, 9, 15, 30, 45, 60, 90 and 120 min. 100 μL of 80:20 water:acetonitrile was added to all samples and the analysis plate was centrifuged for 10 min at RT prior to injection and analysis of samples by UPLC-MS/MS. The response (area ratio of test compound to internal standard) was plotted against time using an exponential decay model from which rate of disappearance was calculated.

[1] = test system: CD4+ T-cells stimulated by CD2, CD3 and CD28 antibodies; assay: Cellular activity IL-4: reduction of IL-4 levels in activated CD4+ T-cells; format: cell-based, human
Method: • 1. CD4^+ T-cells are isolated from cryopreserved human peripheral blood mononuclear cells (PBMCs) using EasySep™ Kit (Cat. No. 17952, Stemcell Technologies). • 2. CD2, CD3 and CD28 antibodies coated beads from T cell Activation/Expansion Kit (Cat. No. 130-091-441, Miltenyi Biotec) are added to the CD4^+ T-cells at a bead-to-cell ratio of 1:2. • 3. CD4^+ T-cells along with the beads are seeded at 2×10^5 cells/well in a round bottom 96-well plate and treated with different compounds and controls in a total volume of 200 μl. • 4. The cells are cultured for 48 hrs at 37° C., 5% CO2. • 5. Supernatant is collected and IL-4 is analysed by ELISA.

BRD4 BD1 = BRD4 BD1 (Homo sapiens (Human), UniProt O60885); assay: Bromodomain binding assay (T7 phage display, qPCR), BRD4 BD1; conditions: read-out: BRD4 BD1 Kd
Method: (§1) T7 phage strains displaying bromodomains were grown in parallel in 24-well blocks in an E. coli host derived from the BL21 strain. E. coli were grown to log-phase and infected with T7 phage from a frozen stock (multiplicity of infection=0.4) and incubated with shaking at 32° C. until lysis (90-150 min). The lysates were centrifuged (5,000×g) and filtered (0.2 μm) to remove cell debris. Streptavidin-coated magnetic beads were treated with biotinylated small molecule or acetylated peptide ligands for 30 min at RT to generate affinity resins for bromodomain assays. The ligated beads were blocked with excess biotin and washed with blocking buffer (SeaBlock (Pierce), 1% BSA, 0.05% Tween 20, 1 mM DTT) to remove unbound ligand and to reduce non-specific phage binding. Binding reactions were assembled by combining bromodomains, ligated affinity beads, and test compounds in 1× binding buffer (16% SeaBlock, 0.32×PBS, 0.02% BSA, 0.04% Tween 20, 0.004% Sodium azide, 7.9 mM DTT). Test compounds were prepared as 1000× stocks in 100% DMSO and subsequently diluted 1:25 in MEG. The compounds were then diluted directly into the assays such that the final concentrations of DMSO and MEG were 0.1% and 2.4%, respectively. All reactions were performed in polypropylene 384-well plates in a final volume of 0.02 ml. The assay plates were incubated at RT with shaking for 1 hr and the affinity beads were washed with wash buffer (1×PBS, 0.05% Tween 20). The beads were then re-suspended in elution buffer (1×PBS, 0.05% Tween 20, 2 μM non-biotinylated affinity ligand) and incubated at RT with shaking for 30 min. The bromodomain concentration in the eluates was measured by quantitative polymerase chain reaction (qPCR).
(§2) An 11-point 3-fold serial dilution of each test compound was prepared in 100% DMSO at 1000× final test concentration. All compounds were distributed by acoustic transfer (non-contact dispensing) in 100% DMSO. The compounds were then diluted directly into the assays such that the final concentration of DMSO was 0.09%. Most dissociation constants were determined using a compound top concentration=10,000 nM. If the initial dissociation constant determined was <0.169 nM (the lowest concentration tested), the measurement was repeated with a serial dilution starting at a lower top concentration.
(§3) The same bromodomain assay procedure as that outlined above was used. Example compounds were screened at 30 times their Kd, and results for primary screen binding interactions are reported as ‘% Ctrl’, where lower numbers indicate stronger hits in the matrix.

BRD4 BD2 = BRD4 BD2 (Homo sapiens (Human), UniProt O60885); assay: Bromodomain binding assay (T7 phage display, qPCR), BRD4 BD2; conditions: read-out: BRD4 BD2 Kd
Method: as §1, §2, §3

[2] = Homo sapiens, T-cell, 48 hrs, ELISA, read-out: EC50 reduction of IL-4 levels
[3] = Homo sapiens, T-cell, read-out: cellular EC50 values, reduction of IL-4 levels

SMILES	Intrinsic clearance, % Liver Blood Flow (human liver hepatocytes)	EC50 [1, 2]	EC50 [1, 3]	Kd (BRD4 BD1)	Kd (BRD4 BD2)	EC50 ([1]; 48 hrs, ELISA, read-out: EC50 reduction of IL-4 levels)
Cn1cc(-c2scnc2Oc2ccccc2)c2cc[nH]c2c1=O [Example 4, 6-methyl-4-(4-phenoxythiazol-5-yl)-1,6-dihydro-7H-pyrrolo[2,3-c]pyridin-7-one]	80 % Liver Blood Flow	10 to 100 nM	< 100 nM	10 to 100 nM	≤ 10 nM	
Cn1ccc(-c2cn(C)c(=O)c3[nH]ccc23)c(Oc2ccccc2)c1=O [Example 5, 6-methyl-4-(1-methyl-2-oxo-3-phenoxy-1,2-dihydropyridin-4-yl)-1,6-dihydro-7H-pyrrolo[2,3-c]pyridin-7-one]	<34 % Liver Blood Flow	≤ 10 nM	< 100 nM	10 to 100 nM	≤ 10 nM	
Cn1cc(Oc2ccccc2)c(-c2cn(C)c(=O)c3[nH]ccc23)cc1=O [Example 7, 6-methyl-4-(1-methyl-2-oxo-5-phenoxy-1,2-dihydropyridin-4-yl)-1,6-dihydro-7H-pyrrolo[2,3-c]pyridin-7-one]	<34 % Liver Blood Flow	10 to 100 nM	< 100 nM	10 to 100 nM	≤ 10 nM	
Cn1cc(-c2cc(O)ccc2OC2CCC2)c2cc[nH]c2c1=O [Example 10, 4-(2-cyclobutoxy-5-hydroxyphenyl)-6-methyl-1,6-dihydro-7H-pyrrolo[2,3-c]pyridin-7-one]	93 % Liver Blood Flow	10 to 100 nM	< 100 nM	≤ 10 nM		
Cc1cc(F)cc(C)c1Oc1c(-c2cn(C)c(=O)c3[nH]ccc23)ccn(C)c1=O [Example 40, 4-(3-(4-fluoro-2,6-dimethylphenoxy)-1-methyl-2-oxo-1,2-dihydropyridin-4-yl)-6-methyl-1,6-dihydro-7H-pyrrolo[2,3-c]pyridin-7-one]	<34 % Liver Blood Flow	100 to 1000 nM		100 to 1000 nM	10 to 100 nM	
Cn1cc(-c2scnc2OC2CCC2)c2cc[nH]c2c1=O [Example 45, 4-(4-cyclobutoxythiazol-5-yl)-6-methyl-1,6-dihydro-7H-pyrrolo[2,3-c]pyridin-7-one]	86 % Liver Blood Flow			100 to 1000 nM	10 to 100 nM	
Cc1cc(F)cc(C)c1Oc1c(-c2cn(C)c(=O)c3[nH]ccc23)ccn(C)c1=O [Example 47, 4-(3-(4-fluoro-2,6-dimethylphenoxy)-1-methyl-2-oxo-1,2-dihydropyridin-4-yl)-6-methyl-1,6-dihydro-7H-pyrrolo[2,3-c]pyridin-7-one]					≤ 10 nM	100 to 1000 nM

Further lines, with some results ahead:

Intrinsic clearance, % Liver Blood Flow (human liver hepatocytes)	EC50 [1, 2]	EC50 [1, 3]	Kd (BRD4 BD1)	Kd (BRD4 BD2)	SMILES	EC50 ([1]; 48 hrs, ELISA, read-out: EC50 reduction of IL-4 levels)
95 % Liver Blood Flow	100 to 1000 nM		10 to 100 nM		Cn1cc(-c2cc(O)ccc2Oc2ccccc2)ccc1=O [Example 8, 5-(5-hydroxy-2-phenoxyphenyl)-1-methyl pyridin-2(1H)-one]	
69 % Liver Blood Flow	> 1000 nM		100 to 1000 nM		Cn1cc(-c2scnc2Oc2ccccc2)ccc1=O [Example 18, 1-methyl-5-(4-phenoxythiazol-5-yl)pyridin-2(1H)-one]	
	10 to 100 nM	< 100 nM	10 to 100 nM		Cn1cc(-c2scnc2Oc2ccc(O)cc2)c2cc[nH]c2c1=O [Example 20, 4-(4-(4-hydroxyphenoxy)thiazol-5-yl)-6-methyl-1,6-dihydro-7H-pyrrolo[2,3-c]pyridin-7-one]	
45 % Liver Blood Flow	100 to 1000 nM		10 to 100 nM		Cn1cc(Oc2cccc(O)c2)c(-c2cn(C)c(=O)c3[nH]ccc23)cc1=O [Example 24, 4-(5-(3-hydroxyphenoxy)-1-methyl-2-oxo-1,2-dihydropyridin-4-yl)-6-methyl-1,6-dihydro-7H-pyrrolo[2,3-c]pyridin-7-one]	
	> 1000 nM		> 1000 nM	100 to 1000 nM	Cc1cc(F)cc(C)c1Oc1c(-c2ccc(=O)n(C)c2)ccn(C)c1=O [Example 39, 3′-(4-fluoro-2,6-dimethylphenoxy)-1,1′-dimethyl-[3,4′-bipyridine]-2′,6(1H,1′H)-dione]	
